Assay [1] deals with L6 muscle cells. The experiment in a line: Immunoblot of L6 myotubes. The following applies: 500 μM sodium butyrate, 4 hours. The format is cell-based. The method, then: To further test the effect of butyrate on muscle, AMPK and PGC-1α were assayed in L6 muscle cells treated with butyrate. Differentiated L6 myotubes were starved in 0.25% BSA DMEM for overnight. The cells were treated with 500 μM of sodium butyrate for 4 hours and analyzed in an immunoblot. […] In the same culture, the PGC-1α protein was increased (FIG. 6A).

The subject of assay [2] is ruminant mammals. Conditions: intravenous use, including in the form of tributyrin; cited from earlier work.
Assay [3] concerns class I and class II histone deacetylases (HDACs). The following applies: cited from earlier work.
Assay [4] relates to obese C57BL/6J mice on HFD. The experiment in a line: Treatment of obese mice (16 weeks HFD) with butyrate for 5 weeks. The format is in vivo, mouse. How it is done:
In the above examples, butyrate was administrated together with HFD during the induction of obesity. To test butyrate in the treatment of obesity and insulin resistance, butyrate was administered to obese mice that had been on HFD for 16 weeks. Obesity was induced in C57BL/6J mice fed on HFD for 16 weeks (21 weeks in age). The obese mice were then treated with butyrate through food supplement for 5 weeks. […] In the control group, the body weight was increased by 15.8% (from 35.9 g to 41.6 g) during the same time period. Values are the means±SE (N=8 in each group). * P<0.05.
Fat content was determined in the body using NMR at the end of 5 week treatment with butyrate. Consistent with the change in body weight, the fat content was reduced by 10% in the butyrate group (FIG. 9B). At the end of 5 weeks, ITT was performed after 4 hours fast and HOMA IR was measured as described above. […] Values are the means±SE (N=8 in each group). * P<0.05.

The subject of assay [5] is skeletal muscle (vastus laterais, gastrocnemius, soleus). The experiment in a line: Skeletal muscle fiber type and immunoblot. The format is in vivo, mouse. Conditions: butyrate 5% w/w in HFD 13 weeks. An excerpt:
Fresh fat and muscles were collected and frozen in liquid nitrogen. The whole cell lysate protein was extract in lysis buffer with sonication and analyzed in western blot as described elsewhere (16). Antibodies were used in study of myoglobin (sc-25607, Santa Cruz), PGC-1 (sc-13068, Santa Cruz), Tubulin (ab7291, Abcam), myosin (M8421, Sigma), pAMPK (Thr 172, #2531, Cell signaling) and p-p38 (sc-7975, Santa Cruz). To detect multiple signals from one membrane, the membrane was stripped with a stripping buffer. Intensity of the immunoblot signal was quantified using a computer program, ImageJ 1.37v (NIH). The mean values of results from three experiments (6 mice each group) were presented. The antibodies to PGC-1α and UCP-1 were from Dr. Thomas Gettys at Pennington Biomedical Research Center, Baton Rouge, La.
The fiber types in skeletal muscle were examined using two methods: succinate dehydrogenase (SDH) staining for […] and immunostaining of type I myosin heavy chain. In the SDH staining, mid-belly cross-sections of muscle were cut at 8 μm in a cryostat (−20° C.). After drying for 5 min at room temperature, the sections were incubated at 37° C. for 60 min in the incubation solution containing 6.5 mmol/l sodium phosphate monobasic, 43.5 mmol/l sodium phosphate biphasic, 0.6 mmol/l nitroblue tetrazolium (74032, Sigma), and 50 mmol/l sodium succinate (14160, Sigma). The sections were rinsed three times (30 sec/time) in 0.9% saline, 5 min in 15% ethanol and then mounted with aqueous mounting medium (Dakocyrtoma).
Fresh skeletal muscle was collected, embedded in gum tragacanth mixed with OCT freezing matrix, and quickly frozen in isopentane cooled in liquid nitrogen. The tissue slides were obtained through serial cross-section cutting at 8 um thickness and processed with a standard procedure. The slides was blotted with a monoclonal antibody against the type I myosin heavy chain (M8421, Sigma) at 1:200 dilution. After being washed, the slide was incubated with a biotinylated secondary antibody (BA-2000). For PGC-1 staining, paraffin sections (8 μm) of BAT or inguinal fat on slides were deparaffinized and blotted with primary antibody of PGC-1 (sc-13067, Santa Cruz) at 1:200, the sections were washed and incubated with a biotinylated secondary antibody (rabbit IgG) in ABC kit. The slides were then incubated with the ABC elite reagent (PK-6101) and color reaction was performed using the DAB substrate kit (SK-4100) for myosin I and AEC substrate kit (AEC101, Sigma) for PGC-1a according to instructions by the manufacturers.
To look for oxidative fiber in skeletal muscle, the vastus laterais muscle was isolated from mice that were fed on HFD for 13 weeks. […] A fiber type analysis was conducted in the vastus laterais, gastrocnemius (rich in glycolytic fibers) and soleus (rich in oxidative fiber). Serial cryostat sections of muscle were made from vastus lateralis, gastrocnemius (gastr.) and soleus muscle. The slides were stained with antibody against Type I myosin heavy chain for oxidative fibers. The ratio of type I fibers were increased in all of the skeletal muscle of butyrate-treated mice (data not shown). Succinate dehydrogenase staining of oxidative fibers was done on serial cryostat sections of the vastus lateralis and gastrocnemius (gastr.) muscle.
To quantify the amount of protein of type 1 myosin heavy chain and PGC-1α, whole cell lysates were prepared from muscle tissues and analyzed in an immunoblot. Signals for PGC-1α, type I myosin heavy chain (Myosin), myoglobin, phospho-AMPK and phospho-p38 (p-p38) were blotted with specific antibodies. Relative signal strength was quantified for each band and expressed in FIG. 5B. The results are the mean±SE (n=8 mice). *P<0.01, ** P<0.001 (vs. control). […] A mean value of each protein was presented in the bar figure in FIG. 5B.
AMPK and p38 activities were examined by their phosphorylation status. […]

Assay [6] deals with C57BL/6J mice on high fat diet. Description: Butyrate at 2.5% w/w in HFD. The format is in vivo, mouse. Conditions: butyrate 2.5% w/w in HFD. How it is done: Sodium butyrate (#303410, Sigma) was tested at two dosages, 5% and 2.5% w/w in HFD. The metabolic effects presented above were from 5%. […] Insulin sensitivity at 12 weeks as indicated by insulin tolerance test (ITT) and glucose tolerance test (GTT) at 13 weeks was higher in the butyrate group than that of the control group (FIGS. 12C and 12D). For the glucose tolerance test, after an overnight fast, 2.5 g/kg glucose was injected intraperitoneally. Blood glucose was measured as described above at 0, 30, 60 and 120 min after injection. […] show values as the means±SE (N=8 in each group), and * indicates p<0.05.

`CCCC(=O)[O-].[Na+]` [sodium butyrate]: in assay [1], the AMPK phosphorylation result is listed as “increased”, the PGC-1α protein result is “increased” and the p38 phosphorylation entry is “increased”. Further, the “serum glucose and insulin” value in assay [2] was “increase”. Moreover, the “effect on class I and class II HDACs” value in assay [3] is “inhibition”. In assay [4] (5-week butyrate treatment), the “HOMA-IR, reduction” value was found to be 50% and the “fasting glucose, reduction” value was found to be 30%. For the same compound, the “fasting glucose after treatment” value in assay [4] (5-week butyrate treatment, from 131) stood at 98.6 mg/dL. The “loss of original body weight” value in assay [4] (5-week treatment with butyrate in food) is 10.2%. Also, the ITT entry in assay [4] (end of 5-week butyrate treatment, 4 hours fast) was “improved significantly”. In assay [4] (end of 5-week butyrate treatment, NMR), the “fat content, reduction” value is 10%. The “body weight after treatment” value in assay [4] (end of 5-week butyrate treatment, from 37.6 g) is recorded as 34.4 g. Moreover, in assay [5] (immunoblot), the “AMPK phosphorylation in muscle lysate” value is given as “increase in their phosphorylation”, the “PGC-1α protein in muscle” value is listed as “significant increase”, the “myoglobin protein in muscle” value is “also increased” and the “p38 phosphorylation in muscle lysate” value is “increase in their phosphorylation”. Further, the “type 1 myosin heavy chain protein in muscle” value in assay [5] (immunoblot) is reported as “significant increase”. In addition, the “Type I fibers (succinate dehydrogenase staining)” value in assay [5] (vastus lateralis and gastrocnemius) is given as “increase in Type I fibers”. Moreover, the “ratio of type I fibers (Type I myosin heavy chain immunostaining)” value in assay [5] (vastus lateralis, gastrocnemius, soleus) is listed as “increased”. Also, in assay [6] (12 weeks), the body weight entry was “reduced” and the “insulin sensitivity by insulin tolerance test (ITT)” value is listed as “higher”. Further, the fat content result in assay [6] (12 weeks, NMR) was “reduced”. For the same compound, the “insulin sensitivity by glucose tolerance test (GTT)” value in assay [6] (13 weeks, 2.5 g/kg glucose i.p.) is “higher”.

The values above are taken from patent publication US20130123358A1, “Metabolic Benefits to Butyrate as a Chronic Diet Supplement” (priority 2009, published 2013).
